These are literature values, as cited in patent US8575191B2, “Methods for treatment of non-small cell lung cancer” (priority 2010, dated 2013).

For the data set, the system named is NSCLC.

Consider `C#Cc1cccc(Nc2ncnc3cc(OCCOC)c(OCCOC)cc23)c1` [erlotinib], for which the “survival HR compared to placebo” value (adenocarcinoma) is listed as 0.8. In addition, the response rate (unselected NSCLC patients previously treated with chemotherapy) is 9%.
